Data from patent US7303765B2, “Ultrafine-L-carnitine, methods of preparing the same, compositions containing the same, and methods of using the same” (Sigma-Tau HealthScience S.p.A., priority 1999, dated 2007).

How the values were obtained:
[1] = Bioavailability / human plasma levels after dosing; settings: in vivo
Description: Transformers may therefore accomplish the target dosage using a reduced active bolus, an efficiency which translates to cost savings. In principle, consumers purchase nutritionals on a pure weight volume (W/V) basis.

[2] = Oral toxicity (LD50) in rats; settings: rat, in vivo
Solubility in water = type: physicochemical
Description: Ultra-fine L-carnitine fumarate so prepared has the following analytical properties: […]

C[N+](C)(C)C[C@H](O)CC(=O)[O-].O=C(O)/C=C/C(=O)O [Ultra-fine L-carnitine fumarate, L-carnitine fumarate]
bioavailability through the mitochondrial pathway ([1]; human): increased bioavailability | human plasma levels [1]: equal those of conventionally sized L-carnitine tartrate | LD50 [2]: > 8000 mg/kg | Solubility (Solubility in water): 5 g/100 ml in water
